Laboratory results reported in US20260274818A1, “HETEROCYCLOALKYL BETA-HYDROXY ALKYL AMINES FOR USE IN THE TREATMENT OF HYPERGLYCAEMIA AND DISORDERS CHARACTERISED BY HYPERGLYCAEMIA” (ATROGI AB, priority 2023, published 2026).
Counter-ions that a name gives are not always drawn.

Key:
Intracellular cAMP = test: Measurement of intracellular cAMP levels in differentiated L6 cells (alpha screen cAMP kit); type: cell-based; details: compound at 10 μM for 15 min vs isoproterenol at 10 μM
Method: (§1) L6-myoblasts were grown in Dulbecco's Modified Eagle's Medium (DMEM) containing 1 g/L glucose supplemented with 10% fetal bovine serum, 2 mM L-Glutamine, 50 U/mL penicillin, […] streptomycin and 10 mM HEPES. Cells were plated at 1×10^5 cells per mL in 24-well plates. After reaching 90% confluence the cells were grown in medium containing 2% FBS for 7 days where upon cells differentiated into myotubes.
Differentiated cells were serum-starved overnight and stimulated with an agonist, final concentration 1×10^−5 M, for 15 min in stimulation buffer (HBSS supplemented with 1% BSA, 5 mM HEPES and 1 mM IBMX, pH 7.4). The medium was aspirated and 100 μL of 95% EtOH was added to each well of the 24-well plate and cells were kept at −20° C. overnight. The EtOH was allowed to evaporate and 500 μL of lysis buffer (1% BSA, 5 mM HEPES and 0.3% Tween-20, pH 7.4) was added to each well. The plate was kept at −80° C. for 30 min and then at −20° C. until the day of detection when the samples were thawed. Intracellular cAMP levels were detected using an alpha screen cAMP kit (6760635D from Perkin Elmer). The activity for each compound is compared to that of isoproterenol.

L6-myotubes = test: Glucose uptake (3H-2-deoxyglucose) in differentiated L6-myotubes; type: cell-based; details: compound at 10 μM vs isoproterenol at 10 μM
Method: as §1
Differentiated L6-myotubes were serum-starved overnight in medium containing 0.5% fatty-acid free BSA and stimulated with an agonist, with a final concentration of 1×10^−5 M. After 1 h 40 min the cells were washed with warm glucose free medium or PBS twice and another portion of agonist was added to the glucose free medium. After 20 min the cells were exposed to 50 nM ^3H-2-deoxyglucose for another 10 min before washed in ice cold glucose free medium or PBS three times and lysed in 400 μL/well 0.2 M NaOH for 1 h at 60° C. The cell lysate was mixed with 4 mL scintillation buffer (Emulsifier Safe, Perkin Elmer) and the radioactivity was detected in a β-counter (Tri-Carb 4810TR, Perkin Elmer). The activity for each compound is compared to that of isoproterenol.

SMILES	Biological example 2: intracellular cAMP levels, activity compared to that of isoproterenol (Intracellular cAMP)	Biological example 1: glucose uptake, activity compared to that of isoproterenol (L6-myotubes)
OC(c1cccc(F)c1)[C@H]1CC[C@@H](CC2CCCNC2)N1 (stereo in doubt) [Example 3, (S)-(3-Fluorophenyl)((2R,5S)-5-(((R)-piperidin-3-yl)methyl)pyrrolidin-2-yl)methanol dihydrochloride]	− (if it less than 25% it is denoted with −)	+ (if it is between 50 and 25% it is denoted with +)
OC(c1cccc(F)c1)[C@H]1CC[C@@H](CC2CCCNC2)N1 (stereo in doubt) [Example 6, (R)-(3-Fluorophenyl)((2R,5S)-5-(((S)-piperidin-3-yl)methyl)pyrrolidin-2-yl)methanol dihydrochloride]	− (if it less than 25% it is denoted with −)	+++ (more than 75% of that of isoproterenol at 10 μM, the activity is denoted with +++)
O[C@H](c1cccc(F)c1)[C@H]1CC[C@@H](CC2CCNCC2)N1 [Example 1, (R)-(3-Fluorophenyl)((2R,5S)-5-(piperidin-4-ylmethyl)pyrrolidin-2-yl)-methanol dihydrochloride]	− (if it less than 25% it is denoted with −)	++ (if it is between 75 and 50% it is denoted with ++)
O[C@@H](c1cccc(F)c1)[C@H]1CC[C@@H](CC2CCNCC2)N1 [Example 2, (S)-(3-Fluorophenyl)((2R,5S)-5-(piperidin-4-ylmethyl)pyrrolidin-2-yl)-methanol dihydrochloride]	− (if it less than 25% it is denoted with −)	+ (if it is between 50 and 25% it is denoted with +)
O[C@@H](c1cccc(F)c1)[C@H]1CC[C@@H](C[C@@H]2CCCNC2)N1 [Example 4, (S)-(3-Fluorophenyl)((2R,5S)-5-(((S)-piperidin-3-yl)methyl)pyrrolidin-2-yl)methanol dihydrochloride]	− (if it less than 25% it is denoted with −)	++ (if it is between 75 and 50% it is denoted with ++)
O[C@H](c1cccc(F)c1)[C@H]1CC[C@@H](C[C@H]2CCCNC2)N1 [Example 5, (R)-(3-Fluorophenyl)((2R,5S)-5-(((R)-piperidin-3-yl)methyl)pyrrolidin-2-yl)methanol dihydrochloride]	− (if it less than 25% it is denoted with −)	++ (if it is between 75 and 50% it is denoted with ++)
CS(=O)(=O)N1CCC(C[C@@H]2CC[C@H]([C@H](O)c3cccc(F)c3)N2)CC1.Cl [Example 7, (R)-(3-Fluorophenyl)((2R,5S)-5-((1-(methylsulfonyl)piperidin-4-yl)-methyl)pyrrolidin-2-yl)methanol hydrochloride]	− (if it less than 25% it is denoted with −)	+++ (more than 75% of that of isoproterenol at 10 μM, the activity is denoted with +++)
CS(=O)(=O)N1CCC(C[C@@H]2CC[C@H]([C@@H](O)c3cccc(F)c3)N2)CC1.Cl [Example 8, (S)-(3-Fluorophenyl)((2R,5S)-5-((1-(methylsulfonyl)piperidin-4-yl)-methyl)pyrrolidin-2-yl)methanol hydrochloride]	− (if it less than 25% it is denoted with −)	++ (if it is between 75 and 50% it is denoted with ++)
CC(=O)N1CCC(C[C@@H]2CC[C@H]([C@H](O)c3cccc(F)c3)N2)CC1.Cl [Example 9, 1-(4-(((2S,5R)-5-((R)-(3-Fluorophenyl)(hydroxy)methyl)pyrrolidin-2-yl)methyl)piperidin-1-yl)ethan-1-one hydrochloride]	− (if it less than 25% it is denoted with −)	+++ (more than 75% of that of isoproterenol at 10 μM, the activity is denoted with +++)
CC(=O)N1CCC(C[C@@H]2CC[C@H]([C@@H](O)c3cccc(F)c3)N2)CC1.Cl [Example 10, 1-(4-(((2S,5R)-5-((S)-(3-Fluorophenyl)(hydroxy)methyl)pyrrolidin-2-yl)methyl)piperidin-1-yl)ethan-1-one hydrochloride]	− (if it less than 25% it is denoted with −)	− (if it less than 25% it is denoted with −)
CS(=O)(=O)N1CCC[C@H](C[C@@H]2CC[C@H]([C@@H](O)c3cccc(F)c3)N2)C1.Cl [Example 11, (S)-(3-Fluorophenyl)((2R,5S)-5-(((R)-1-(methylsulfonyl)piperidin-3-yl)methyl)pyrrolidin-2-yl)methanol hydrochloride]	− (if it less than 25% it is denoted with −)	+ (if it is between 50 and 25% it is denoted with +)
CS(=O)(=O)N1CCC[C@H](C[C@@H]2CC[C@H]([C@H](O)c3cccc(F)c3)N2)C1.Cl [Example 12, (R)-(3-Fluorophenyl)((2R,5S)-5-(((R)-1-(methylsulfonyl)piperidin-3-yl)methyl)pyrrolidin-2-yl)methanol hydrochloride]	− (if it less than 25% it is denoted with −)	+++ (more than 75% of that of isoproterenol at 10 μM, the activity is denoted with +++)
CS(=O)(=O)N1CCC[C@@H](C[C@@H]2CC[C@H]([C@@H](O)c3cccc(F)c3)N2)C1.Cl [Example 13, (S)-(3-Fluorophenyl)((2R,5S)-5-(((S)-1-(methylsulfonyl)piperidin-3-yl)methyl)pyrrolidin-2-yl)methanol hydrochloride]	− (if it less than 25% it is denoted with −)	++ (if it is between 75 and 50% it is denoted with ++)
CS(=O)(=O)N1CCC[C@@H](C[C@@H]2CC[C@H]([C@H](O)c3cccc(F)c3)N2)C1.Cl [Example 14, (R)-(3-Fluorophenyl)((2R,5S)-5-(((S)-1-(methylsulfonyl)piperidin-3-yl)methyl)pyrrolidin-2-yl)methanol hydrochloride]	− (if it less than 25% it is denoted with −)	+++ (more than 75% of that of isoproterenol at 10 μM, the activity is denoted with +++)
Cl.O[C@@H](c1cccc(F)c1)[C@H]1CC[C@@H](CC2CCOCC2)N1 [Example 15, (S)-(3-Fluorophenyl)((2R,5S)-5-((tetrahydro-2H-pyran-4-yl)methyl)-pyrrolidin-2-yl)methanol hydrochloride]	− (if it less than 25% it is denoted with −)	++ (if it is between 75 and 50% it is denoted with ++)
Cl.O[C@H](c1cccc(F)c1)[C@H]1CC[C@@H](CC2CCOCC2)N1 [Example 16, (R)-(3-Fluorophenyl)((2R,5S)-5-((tetrahydro-2H-pyran-4-yl)methyl)-pyrrolidin-2-yl)methanol hydrochloride]	+ (if it is between 50 and 25% it is denoted with +)	+++ (more than 75% of that of isoproterenol at 10 μM, the activity is denoted with +++)
